Test results: patent US20090238808A1, “Process for the identification of novel enzyme interacting compounds” (priority 2005, published 2009)

Tests used:
Test in all cases: In-lysate competition binding with kinobeads, Jurkat lysate, iTRAQ MS, relative intensity of identified proteins (Table 22)
Conditions in all cases: DMSO control = 1.0
[1] = biological target: T1, proteins captured on kinobeads from Jurkat cell lysate (Homo sapiens, UniProt P06239)
T1 construct: endogenous in cells; host or cells: Jurkat clone E6-1 lysate
Description: (§1) This example illustrates competition binding in cell lysates (see particularly the third aspect of the invention). A test compound, Bisindolylmaleimide VIII (Bis VIII, a well known kinase inhibitor; Davies et al., 2000. Specificity and mechanism of action of some commonly used protein kinase inhibitors. Biochemical Journal 351 (Pt 1): 95-105) was added to a cell lysate thereby allowing the test compound to bind to the target proteins in the lysate. Then the lysate was contacted with the kinobeads affinity matrix to capture remaining free target proteins. The proteins bound to the kinobeads matrix were then eluted with detergent-containing buffer, separated on a SDS-polyacryamide gel and analyzed by immunodetection (Western blots) or mass spectrometry detection.
(§2) For the quantitative detection of proteins by mass spectrometry proteins were eluted from the affinity matrix and subsequently separated by SDS-Polyacrylamide gel elecrophoresis. Suitable gel areas were cut out and subjected to in-gel proteolytic digestion with trypsin.
(§3) Four tryptic digest samples (corresponding to three different Bis VIII concentrations in the lysate and one DMSO control) were labeled with ITRAQ reagents and the combined samples were analyzed in a single LC-MS/MS mass spectrometry analysis followed by peak quantification in the MS/MS spectrum (Ross et al., 2004. Multiplexed protein quantitation in Saccharomyces cerevisiae using amine-reactive isobaric tagging reagents. Mol. Cell. Proteomics 3(12): 1154-1169). […] Binding curves for individual kinases are shown (FIG. 5). The relative intensity 50 (RI50) values representing the affinity of kinase-compound pairs are similar to IC50 values reported by kinase enzyme assays (Davies et al., 2000. Specificity and mechanism of action of some commonly used protein kinase inhibitors. Biochemical Journal 351 (Pt 1): 95-105).
(§4) Aliqots of Jurkat lysate (10 mg protein) were incubated with different Bis VIII concentrations for one hour at 4° C. (0.025 μM, 0.074 μM, 0.22 μM, 0.67 μM, 2.0 μM and 6.0 μM final concentration of Bis VIII). To this end Bis VIII solutions were prepared in 100% DMSO as solvent that corresponded to 200 fold desired final Bis VIII concentration (Bis VIII from Alexis Biochemicals cat. number ALX 270-056). Five μl of these solutions were added to 1 ml of lysate resulting in the indicated final concentrations. For a control experiment 5 μl of DMSO without Bis VIII were used.
(§5) To each preincubated lysate sample 40 μl of kinobeads (see example 1) were added and incubated for one hour at 4° C. During the incubation the tubes were rotated on an end-over-end shaker (Roto Shake Genie, Scientific Industries Inc.). Beads were collected by centrifugation, transfered to Mobicol-columns (MoBiTech 10055) and washed with 10 ml 1×DP buffer containing 0.4% NP40 detergent, followed by a wash with 5 ml 1×DP buffer with 0.2% NP40. To elute the bound proteins, 100 μl 2×SDS sample buffer was added, the column was heated for 30 minutes at 50° C. and the eluate was transferred to a microfuge tube by centrifugation. Proteins were then separated by SDS-Polyacrylamide electrophoresis (SDS-PAGE). The composition and preparation of buffers is described in example 2.
(§6) The peptide extracts of samples treated with different concentrations of the test compound (0.074 μM, 0.22 μM and 0.67 μM Bis VIII) and the solvent control (0.5% DMSO) were treated with different isomers of the isobaric tagging reagent (iTRAQ Reagents Multiplex Kit, part number 4352135, Applied Biosystems, Foster City, Calif., USA). The iTRAQ reagents are a set of multiplexed, amine-specific, stable isotope reagents that can label all peptides in up to four different biological samples enabling simultaneous identification and quantitation of peptides. The iTRAQ reagents were used according to instructions provided by the manufacturer. […]

[2] = biological target: T2, proteins captured on kinobeads from Jurkat cell lysate (Homo sapiens, UniProt P07947)
T2 construct: endogenous in cells; host or cells: Jurkat clone E6-1 lysate
Description: as §1, §2, §3, §4, §5, §6

[3] = biological target: T3, proteins captured on kinobeads from Jurkat cell lysate (Homo sapiens, UniProt P15559)
T3 construct: endogenous in cells; host or cells: Jurkat clone E6-1 lysate
Description: as §1, §2, §3, §4, §5, §6

[4] = biological target: T4, proteins captured on kinobeads from Jurkat cell lysate (Homo sapiens, UniProt P28482)
T4 construct: endogenous in cells; host or cells: Jurkat clone E6-1 lysate
Description: as §1, §2, §3, §4, §5, §6

[5] = biological target: T5, proteins captured on kinobeads from Jurkat cell lysate (Homo sapiens, UniProt P30291)
T5 construct: endogenous in cells; host or cells: Jurkat clone E6-1 lysate
Description: as §1, §2, §3, §4, §5, §6

[6] = biological target: T6, proteins captured on kinobeads from Jurkat cell lysate (Homo sapiens, UniProt P45983)
T6 construct: endogenous in cells; host or cells: Jurkat clone E6-1 lysate
Description: as §1, §2, §3, §4, §5, §6

[7] = biological target: T7, proteins captured on kinobeads from Jurkat cell lysate (Homo sapiens, UniProt P48729)
T7 construct: endogenous in cells; host or cells: Jurkat clone E6-1 lysate
Description: as §1, §2, §3, §4, §5, §6

[8] = biological target: T8, proteins captured on kinobeads from Jurkat cell lysate (Homo sapiens, UniProt P50613)
T8 construct: endogenous in cells; host or cells: Jurkat clone E6-1 lysate
Description: as §1, §2, §3, §4, §5, §6

[9] = biological target: T9, proteins captured on kinobeads from Jurkat cell lysate (Homo sapiens, UniProt P54619)
T9 construct: endogenous in cells; host or cells: Jurkat clone E6-1 lysate
Description: as §1, §2, §3, §4, §5, §6

[10] = biological target: T10, proteins captured on kinobeads from Jurkat cell lysate (Homo sapiens, UniProt Q00535)
T10 construct: endogenous in cells; host or cells: Jurkat clone E6-1 lysate
Description: as §1, §2, §3, §4, §5, §6

[11] = biological target: T11, proteins captured on kinobeads from Jurkat cell lysate (Homo sapiens, UniProt Q13555)
T11 construct: endogenous in cells; host or cells: Jurkat clone E6-1 lysate
Description: as §1, §2, §3, §4, §5, §6

[12] = biological target: T12, proteins captured on kinobeads from Jurkat cell lysate (Homo sapiens, UniProt Q14289)
T12 construct: endogenous in cells; host or cells: Jurkat clone E6-1 lysate
Description: as §1, §2, §3, §4, §5, §6

[13] = biological target: T13, proteins captured on kinobeads from Jurkat cell lysate (Homo sapiens, UniProt Q16539)
T13 construct: endogenous in cells; host or cells: Jurkat clone E6-1 lysate
Description: as §1, §2, §3, §4, §5, §6

[14] = biological target: T14, proteins captured on kinobeads from Jurkat cell lysate (Homo sapiens, UniProt Q9H0K1)
T14 construct: endogenous in cells; host or cells: Jurkat clone E6-1 lysate
Description: as §1, §2, §3, §4, §5, §6

[15] = biological target: T15, proteins captured on kinobeads from Jurkat cell lysate (Homo sapiens, UniProt Q9Y478)
T15 construct: endogenous in cells; host or cells: Jurkat clone E6-1 lysate
Description: as §1, §2, §3, §4, §5, §6

`Cn1cc(C2=C(c3cn(CCCN)c4ccccc34)C(=O)NC2=O)c2ccccc21` [Bis VIII, Bisindolylmaleimide VIII] was tested, and the “Relative Intensity, LCK” value ([1]; 0.074 uM in lysate) was 0.87, the “Relative Intensity, LCK” value ([1]; 0.67 uM in lysate) was 0.94 and the “Relative Intensity, YES (YES1)” value ([2]; 0.074 uM in lysate) was 0.82. For the same compound, the “Relative Intensity, YES (YES1)” value ([2]; 0.67 uM in lysate) was 0.87, the “Relative Intensity, NQO1” value ([3]; 0.074 uM in lysate) was 0.84 and the “Relative Intensity, NQO1” value ([3]; 0.67 uM in lysate) was 0.87. For the same compound, the “Relative Intensity, Erk2 (MAPK1)” value ([4]; 0.074 uM in lysate) was 0.89, the “Relative Intensity, Erk2 (MAPK1)” value ([4]; 0.67 uM in lysate) was 0.98 and the “Relative Intensity, Wee1” value ([5]; 0.074 uM in lysate) was 1.21. For the same compound, the “Relative Intensity, Wee1” value ([5]; 0.67 uM in lysate) was 1.14, the “Relative Intensity, JNK1 (MAPK8)” value ([6]; 0.074 uM in lysate) was 0.91 and the “Relative Intensity, JNK1 (MAPK8)” value ([6]; 0.67 uM in lysate) was 0.83. The “Relative Intensity, CK1a (CSNK1A1)” value ([7]; 0.074 uM in lysate) was 0.97, the “Relative Intensity, CK1a (CSNK1A1)” value ([7]; 0.67 uM in lysate) was 1.02 and the “Relative Intensity, CDK7” value ([8]; 0.074 uM in lysate) was 1.03. The “Relative Intensity, CDK7” value ([8]; 0.67 uM in lysate) was 0.89, the “Relative Intensity, PRKAG1” value ([9]; 0.074 uM in lysate) was 0.78 and the “Relative Intensity, PRKAG1” value ([9]; 0.67 uM in lysate) was 0.68. For the same compound, the “Relative Intensity, CDK5” value ([10]; 0.074 uM in lysate) was 0.92, the “Relative Intensity, CDK5” value ([10]; 0.67 uM in lysate) was 0.95 and the “Relative Intensity, CaMK2g” value ([11]; 0.074 uM in lysate) was 0.83. The “Relative Intensity, CaMK2g” value ([11]; 0.67 uM in lysate) was 0.88, the “Relative Intensity, PYK2 (PTK2B)” value ([12]; 0.074 uM in lysate) was 0.82 and the “Relative Intensity, PYK2 (PTK2B)” value ([12]; 0.67 uM in lysate) was 0.74. The “Relative Intensity, p38a (MAPK14)” value ([13]; 0.074 uM in lysate) was 0.82, the “Relative Intensity, p38a (MAPK14)” value ([13]; 0.67 uM in lysate) was 0.93 and the “Relative Intensity, QIK (SNF1LK2)” value ([14]; 0.074 uM in lysate) was 0.93. For the same compound, the “Relative Intensity, QIK (SNF1LK2)” value ([14]; 0.67 uM in lysate) was 0.98, the “Relative Intensity, PRKAB1” value ([15]; 0.074 uM in lysate) was 0.91 and the “Relative Intensity, PRKAB1” value ([15]; 0.67 uM in lysate) was 0.79.
